In patent publication US20070099879A1 (priority 2005, published 2007):
“Also recorded” adds a separate entry of the source.

What was measured:
[1] = test system: retinal endothelial cells; assay: Retinal endothelial cell proliferation assay (CellTiter 96 AQueous); assay type: cell-based, mouse; details: for Relative Survival: relative to solvent control
Protocol: Primary mouse retinal endothelial cell (REC) cultures were prepared and maintained as described previously (Su X, et al., Isolation and characterization of murine retinal endothelial cells. Mol Vision. 2003;9:171-178). Briefly, REC were isolated from wild type or transgenic-immortomouse by collagenase digestion of retina and affinity purification using magnetic beads coated with platelet/endothelial cell adhesion molecule-1 (anti-PECAM-1). The bound cells were plated on fibronectin-coated wells and expanded. The REC were characterized for expression and localization of endothelial cell markers by fluorescence-activated cell sorting (FACS) analysis and indirect immuno fluorescence staining. The ability of these cells to form capillary like networks was assessed on matrigel™. For cell proliferation assays, retinal endothelial cell (10,000) were plated in triplicate in 96-well plates and incubated overnight. […] The degree of proliferation was assessed using the nonradioactive cell proliferation assay (CellTiter 96® AQueous; Promega, Madison, Wis.) as recommended by the supplier.

retinal EC [2] = assay: Retinal EC wound migration assay; assay type: cell-based, mouse; details: 10 μM calcitriol, 0, 24 and 48 hours
Protocol: (§1) Retinal EC migration was determined using both wound migration and transwell assays. […] Wound closure was monitored by phase microscopy, and digital images were obtained at different time points used for quantitative assessment of migration. For transwell migration, wells (8 μm pore size, 6.5 mm membrane; Costar) were coated with Matrigel™ (200 μg/ml) or fibronectin (2 μg/ml) in PBS on the bottom side at 4° C. overnight. The next day, inserts were rinsed with PBS, blocked in PBS containing 2% BSA for 1 h at room temperature, and washed with PBS. Cells were removed by trypsin-EDTA, counted, and resuspended at 1×10^6 cells/ml in serum-free medium. Inserts were placed in 24-well dishes (Costar) containing 0.5 ml of serum-free medium and 0. 1 ml of cell suspension was then added to the top of the insert. Cells were allowed to migrate through the filter for 3 h in a tissue culture incubator. After incubation, the cells on the top of the filter were scraped off using a cotton swab; the membrane was then fixed in 4% paraformaldehyde and stained with hematoxylin and eosin. The inserts were then mounted on a slide cell side up, and the number of cells which migrated to the bottom of the filter was determined by counting 10 high power fields at X200 magnification.

retinoblastoma = details: 0.05 μg/d, mice; cited from earlier work
[3] = Toxic effect assessment: body weight of mice during OIR; details: mouse, in vivo
Source text: In the OIR studies, all pups had similar body weight prior to initiation of the experiment (P12) and after exposure to high oxygen (P17).

retinal EC [4] = assay: Retinal EC transwell migration assay; assay type: cell-based, mouse; details: 10 μM calcitriol, 3 h
Protocol: as §1, with “Cells were allowed to migrate through the filter for 3 h in a tissue culture incubator. After incubation, the cells on the top of the filter were scraped off using a cotton swab; the membrane was then fixed in 4% paraformaldehyde and stained with hematoxylin and eosin.” left out
FIG. 5C illustrate is a quantification of the transwell assay as described above. […] Cells were removed by trypsin-EDTA, counted, and resuspended at 1×10^6 cells/ml in serum-free medium. […] The inserts were then mounted on a slide cell side up and the number of cells which migrated to the bottom of the filter was determined by counting 10 high power fields at ×200 magnification. […]

[5] = test system: retinal endothelial cells; assay: Retinal endothelial cell capillary morphogenesis in Matrigel; assay type: cell-based, mouse; details: 10 μM calcitriol, 18 h
Protocol: The ability of the cultured retinal endothelial cells to form capillary like networks was assessed on Matrigel™ (B D Biosciences, San Jose, Calif.). The capillary morphogenesis assays in Matrigel™ were performed as previously described (Su X, et al., Isolation and characterization of murine retinal endothelial cells. Mol Vision. 2003;9:171-178; Rothermel T A, et al., Polyoma virus middle-T-transformed PECAM-1 deficient mouse brain endothelial cells proliferate rapidly in culture and form hemangiomas in mice. J Cell Physiol. 2005;202:230-239). Briefly, 0.5 ml of Matrigel™ was added to a cold 35 mm tissue culture plate and incubated at 37° C. for at least 30 min to allow the Matrigel™ to harden. […] Cultures were monitored for 6-48 h, and images were captured in digital format after 18 h when maximum organization was observed. […] The capillary network formed by control cells began to fall apart at 24-48 h.

VEGF = assay: Western blot of VEGF in whole eye extracts of P15 mice during OIR; assay type: in vivo, mouse
Protocol: Vascular endothelial growth factor (VEGF) levels were determined by Western blotting of whole eye extracts prepared from P15 mice during OIR (5 days of hyperoxia and 3 days of normoxia) when maximum levels of VEGF were expressed (Wang S, et al. Attenuation of Retinal Vascular Development and Neovascularization during Oxygen-Induced Ischemic Retinopathy in Bcl-2 -/- Mice. Developmental Biol. 2005;279:205-219). Mice were euthanized by CO2 inhalation, then eyes from 2 or 3 mice dissected, homogenized in 0.2 ml of RIPA buffer, 10 mM HEPES pH 7.6, 142.5 mM KCl, 1% NP-40, and protease inhibitor cocktail, (Roche Applied Science, Indianapolis, Ind.), sonicated briefly, and incubated at 4° C. for 20 min. […] Supernatants were transferred to a clean tube, and protein concentrations were determined using the DC Protein Assay (Bio-Rad Laboratories, Hercules, Calif., Cat. No. 500-011 1). Approximately 20 μg of protein from the centrifuged homogenates were analyzed by SDS-PAGE (4-20% Tris-Glycin gel, Invitrogen, Carlsbad, Calif.) under reducing conditions and transferred to a nitrocellulose membrane. […] For quantitative assessments, the band intensities relative to loading controls were determined by scanning the blots using the Molecular Dynamics Storm 860 Scanner and Image Quant Software (Amersham Biosciences, Piscataway, N.J.).

[6] = test system: retinal neovascularization; assay: Mouse oxygen-induced ischemic retinopathy (OIR) model, retinal neovascularization; assay type: in vivo; details: for inhibition of neovascularization: P17 mice
Protocol: All experimental procedures involving animals were performed according to the ARVO Statement for the Use of Animals in Ophthalmic and Vision Research. […] In this model, 7-day-old (P7) pups (8-10 pups) and their mother were placed in an airtight incubator and exposed to an atmosphere of 75±0.5% oxygen (hyperoxia) for 5 days. Incubator temperature was maintained at 23±2° C., and oxygen was continuously monitored with a PROOX model 110 oxygen controller (Reming Bioinstruments Co., Redfield, N.Y.). Mice were then brought to room air for 5 days. Maximum retinal neovascularization occurred from P12 to P17. […] The other half of the littermates was injected with 0.1 ml of mineral oil. Generally one eye from each mouse was used for histochemical analysis and the other eye for histological evaluation as outlined below. These experiments were repeated at least 3 times for each dose.
Briefly, P17 mouse eyes were enucleated and briefly fixed in 4% paraformaldehyde in phosphate buffered saline (PBS) (10 min on ice). The paraformaldehyde fixed eyes were then fixed in 70% ethanol for at least 24 h at −20° C. Retinas were dissected in PBS and then washed with PBS 3 times, 10 min each. Following incubation in blocking buffer (50% fetal calf serum, 20% normal goat serum (NGS) in PBS) for 2h, the retinas were incubated with rabbit anti-mouse collagen IV (Chemicon, diluted 1:500 in PBS containing 20% fetal calf serum, 20% normal goat serum) at 4° C. overnight. Retinas were then washed 3 times with PBS, 10 min each, incubated with a secondary antibody Alexa 594-labeled goat-anti-rabbit (Invitrogen, Carlsbad, Calif.), at 1:500 dilution prepared in PBS containing 20% FCS, 20% NGS for 2 h at room temperature, washed 4 times with PBS (30 min each), and mounted on a slide with PBS/glycerol (2vol/1vol). Retinas were viewed by fluorescence microscopy, and images were captured in digital format using a Zeiss microscope (Carl Zeiss, Chester, Va.).
Quantification of retinal neovascularization on P17 was performed by counting vascular cell nuclei anterior to the […] (Wang S, et al., Attenuation of Retinal Vascular Development and Neovascularization during Oxygen-Induced Ischemic Retinopathy in Bcl-2 -/- Mice. Developmental Biol. 2005;279:205-219). Briefly, mice eyes were enucleated, fixed in formalin for 24 h, and embedded in paraffin. Serial sections (6 μm), each separated by at least 40 μm, were taken from around the region of the optic nerve. The hematoxylin- and PAS-stained sections were examined in masked fashion, by two independent observers without the knowledge of the samples identity, the presence of neovascular tufts projecting into the vitreous from the retina. […]

C=C1/C(=C\C=C2/CCC[C@]3(C)[C@@H]([C@H](C)CCCC(C)(C)O)CC[C@@H]23)C[C@@H](O)C[C@@H]1O [calcitriol, 1α,25-dihydroxyvitamin D3]
Relative Survival ([1]; 0.25 μM calcitriol, 3 days): 108%
Relative Survival ([1]; 0.50 μM calcitriol, 3 days): 111%
Relative Survival ([1]; 10.00 μM calcitriol, 3 days): 111%
Relative Survival ([1]; 50.00 μM calcitriol, 3 days): 87%
Relative Survival ([1]; 100.00 μM calcitriol, 3 days): 12%
inhibition at 100 µM ([1]; Mus musculus, Endothelial cell, 72 h, read-out: inhibition of retinal endothelial cell proliferation, 100 μM calcitriol, 3 days): 90%
effect on retinal endothelial cell proliferation ([1]; calcitriol 0-10 μM, 9 days): no effect; also recorded: minimal effects
effect on retinal endothelial cell proliferation ([1]; calcitriol 50 μM and higher): significant inhibition; also recorded: Significant toxicity
effect on retinal endothelial cell proliferation ([1]; calcitriol up to 10 μM, 3 days): No significant inhibition
effect on retinal endothelial cell proliferation ([1]; calcitriol up to 10 μM, 3 days, listed as Calcitriol): no effect
retinal EC wound migration vs ethanol control (retinal EC [2]): not significant
decrease in retinal involvement of retinoblastoma compared to controls (retinoblastoma): 50%
Body Weight [3]: 5.04 ± 0.23
mortality during OIR experiments [3]: None of the experimental animals died
retinal EC migration through filter coated with Matrigel (retinal EC [4]): no significant effect
retinal EC migration through filters coated with fibronectin (retinal EC [4]; compared to solvent control (not shown)): slightly enhanced
capillary morphogenesis in Matrigel [5]: completely inhibited; also recorded: completely abolished
capillary morphogenesis in Matrigel ([5]; listed as Calcitriol): no capillaries are observed
Relative Intensity of Expressed VEGF (VEGF; 0.025 μg (~5 μg/Kg), n = 3, P15 eye extracts, relative to β-catenin, mean ± SD, control 0.39 ± 0.08): 0.37 ± 0.06 (SD)
difference in VEGF expression between control and calcitriol-treated eyes (VEGF; 5 μg/Kg, P15 mice during OIR): no significant difference
MEAN NUMBER OF ENDOTHELIAL NUCLEI ([6]; 0.025 μg (~5 μg/Kg), n = 4, mean ± SD, P17, control 39.9 ± 6.4, P < 0.001): 3.8 ± 2.2 (SD)
inhibition of neovascularization ([6]; 0.5 μg/Kg calcitriol, vs control): 60%
inhibition of neovascularization ([6]; 2.5 μg/Kg calcitriol, vs control): 75%
inhibition of retinal neovascularization ([6]; 5 μg/Kg (0.025 μg) calcitriol i.p. per day P12 to P17, P17 mice, vs control): greater than 90%
